From article PMC8080067, “Tight binding of cytochrome b5 to cytochrome P450 17A1 is a critical feature of stimulation of C21 steroid lyase activity and androgen synthesis” (The Journal of Biological Chemistry, 2021)
Numbering of substitutions follows the chain as printed. Where two headings read alike, the source gives them in different places.

Legend:
Experiment in all cases: Steady-state kinetics of steroid 17α-hydroxylation and lyase reactions, reconstituted system
[1] = target: WT P450 17A1 (Homo sapiens, UniProt P05093)
Experimental: (§1) P450 catalytic activity assays to measure steroid hydroxylation and lyase reactions were carried out as described previously ([23], [37], [64]).
(§2) The reactions were initiated by adding an NADPH-regenerating system (final concentrations of 15 mM glucose 6-phosphate, 1.5 mM NADP^+, and 1 IU ml^−1 glucose 6-phosphate dehydrogenase) ([75]) and terminated by quenching and extracting with 2.0 ml CH2Cl2. Aliquots of the organic phases were dried and then dissolved in 100 μl of a CH3CN/H2O (1:1, v/v) mixture. […] The extraction procedure was then repeated, and the (Δ^4) reaction products were analyzed in a Waters Acquity UPLC system using a BEH C18 octadecylsilane column (2.1 mm × 100 mm, 1.7 μm). The reaction products were resolved using a mobile phase composed of solvents A (70% CH3OH, 30% H2O, v/v) and B (CH3CN), at a flow rate of 0.2 ml min^−1. The mobile phase linear gradient proceeded as follows: 0 to 1 min, 5% B; 4 min, 30% B; 4.5 min, 40% B; 4.55 to 6.75 min, 95% BA; and 7 to 10 min, 5% B. The reaction products were identified by coelution with commercial standards and quantified by the A243 peak areas. Steady-state kinetic parameters were estimated using nonlinear regression of hyperbolic fits in GraphPad Prism software, with equations used for kcat and the specificity constant kcat/Km ([76]): Y = (ksp ∗ X)/(1 + (ksp ∗ X/kcat)) and then deriving Km by division.

[2] = target: T1, P450 17A1 E305G variant (Homo sapiens, UniProt P05093, E305G)
T1 sequence (P05093 1-508 E305G): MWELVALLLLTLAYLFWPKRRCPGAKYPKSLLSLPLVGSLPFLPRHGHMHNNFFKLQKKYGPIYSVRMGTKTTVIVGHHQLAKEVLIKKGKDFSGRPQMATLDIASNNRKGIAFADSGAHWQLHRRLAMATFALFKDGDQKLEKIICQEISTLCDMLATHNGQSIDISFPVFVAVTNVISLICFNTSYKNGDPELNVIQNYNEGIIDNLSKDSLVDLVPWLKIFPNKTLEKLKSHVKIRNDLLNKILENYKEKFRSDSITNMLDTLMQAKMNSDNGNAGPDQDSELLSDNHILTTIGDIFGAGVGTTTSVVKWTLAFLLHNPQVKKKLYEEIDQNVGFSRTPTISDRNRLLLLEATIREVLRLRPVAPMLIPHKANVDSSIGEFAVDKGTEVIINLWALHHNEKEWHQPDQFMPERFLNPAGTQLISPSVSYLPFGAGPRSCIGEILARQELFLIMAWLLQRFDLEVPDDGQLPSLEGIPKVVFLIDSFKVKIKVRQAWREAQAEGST
Experimental: as §1
as §2, with “The mobile phase linear gradient proceeded as follows: 0 to 1 min, 5% B; 4 min, 30% B; 4.5 min, 40% B; 4.55 to 6.75 min, 95% BA; and 7 to 10 min, 5% B. The reaction products were identified by coelution with commercial standards and quantified by the A243 peak areas.” left out

[3] = target: T2, P450 17A1 R347H variant (Homo sapiens, UniProt P05093, R347H)
T2 sequence (P05093 1-508 R347H): T1 sequence (P05093 1-508 E305G) with G305E, R347H
Experimental: as §1
as §2, with “The mobile phase linear gradient proceeded as follows: 0 to 1 min, 5% B; 4 min, 30% B; 4.5 min, 40% B; 4.55 to 6.75 min, 95% BA; and 7 to 10 min, 5% B. The reaction products were identified by coelution with commercial standards and quantified by the A243 peak areas.” left out

[4] = target: T3, P450 17A1 R358Q variant (Homo sapiens, UniProt P05093, R358Q)
T3 sequence (P05093 1-508 R358Q): T1 sequence (P05093 1-508 E305G) with G305E, R358Q
Experimental: as §1
as §2, with “The mobile phase linear gradient proceeded as follows: 0 to 1 min, 5% B; 4 min, 30% B; 4.5 min, 40% B; 4.55 to 6.75 min, 95% BA; and 7 to 10 min, 5% B. The reaction products were identified by coelution with commercial standards and quantified by the A243 peak areas.” left out

[5] = lyase reaction (conversion to androstenedione or DHEA)

Sequence of WT P450 17A1 (P05093 whole entry): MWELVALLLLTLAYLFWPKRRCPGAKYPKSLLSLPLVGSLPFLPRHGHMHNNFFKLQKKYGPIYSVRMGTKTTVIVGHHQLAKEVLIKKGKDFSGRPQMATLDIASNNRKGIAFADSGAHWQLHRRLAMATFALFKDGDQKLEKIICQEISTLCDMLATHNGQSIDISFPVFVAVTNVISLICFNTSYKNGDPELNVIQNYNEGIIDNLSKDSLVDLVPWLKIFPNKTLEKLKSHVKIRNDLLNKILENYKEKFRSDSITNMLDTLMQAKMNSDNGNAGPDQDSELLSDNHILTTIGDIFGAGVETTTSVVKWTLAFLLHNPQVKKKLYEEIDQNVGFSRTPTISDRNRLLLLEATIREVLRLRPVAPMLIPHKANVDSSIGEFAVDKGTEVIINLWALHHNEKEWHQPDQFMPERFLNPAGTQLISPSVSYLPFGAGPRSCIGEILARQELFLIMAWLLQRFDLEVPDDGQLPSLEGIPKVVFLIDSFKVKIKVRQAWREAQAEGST
Sequence of WT P450 17A1 (P00167 whole entry partner): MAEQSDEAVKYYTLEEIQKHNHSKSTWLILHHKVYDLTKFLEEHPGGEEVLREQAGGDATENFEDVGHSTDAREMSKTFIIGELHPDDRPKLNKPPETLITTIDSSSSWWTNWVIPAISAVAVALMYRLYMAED

% WT (kcat/Km) [1] [%]	% WT (kcat/Km) ([2]; 17α-hydroxylation) [%]	% WT (kcat/Km) ([3]; 17α-hydroxylation) [%]	% WT (kcat/Km) ([4]; 17α-hydroxylation) [%]	Structure (SMILES)	% WT (kcat/Km) ([1]; lyase reaction (conversion to androstenedione or DHEA), WT) [%]	% WT (kcat/Km) [2, 5] [%]	% WT (kcat/Km) [3, 5] [%]	% WT (kcat/Km) [4, 5] [%]
100	8	4	11	CC(=O)[C@H]1CC[C@H]2[C@@H]3CCC4=CC(=O)CC[C@]4(C)[C@H]3CC[C@]12C [Progesterone]	–	–	–	–
–	–	–	–	CC(=O)[C@@]1(O)CCC2C3CC=C4C[C@@H](O)CC[C@]4(C)C3CC[C@@]21C (stereo partly drawn) [17α-OH pregnenolone]	100	0.7	1.1	0.6
100	0.7	19	12	CC(=O)C1CCC2C3CC=C4C[C@@H](O)CC[C@]4(C)C3CC[C@]12C (stereo partly drawn) [Pregnenolone]	–	–	–	–
